Values of other authors in patent US8137734B2, “Preparation of controlled release skeletal muscle relaxant dosage forms” (Aptalis Pharmatech, Inc., priority 2008, dated 2012).

absorption (after oral administration): well absorbed | half-life (elimination): one to three
Compound: CN(C)CCC=C1c2ccccc2C=Cc2ccccc21 [Cyclobenzaprine]
